Reference: ChEMBL document CHEMBL3885881, “DrugMatrix”

Organism: Rattus norvegicus
Assay: DrugMatrix - Regimen: Daily Repeat
Format: toxicity, organism-based, Sprague-Dawley
Parameters: regimen Daily Repeat, gender Male, age 6-8 weeks
Conditions: in vivo, po, route oral GAVAGE, vehicle 100 % WATER; for ABSOLUTE BASOPHIL / ABSOLUTE EOSINOPHIL / ABSOLUTE LYMPHOCYTE / ABSOLUTE MONOCYTE / ABSOLUTE SEGMENTED NEUTROPHIL / BASOPHIL / EOSINOPHIL / ERYTHROCYTE COUNT / HEMATOCRIT / HEMOGLOBIN / LEUKOCYTE COUNT / LYMPHOCYTE / MEAN CORPUSCULAR HEMOGLOBIN / MEAN CORPUSCULAR HEMOGLOBIN CONCENTRATION / MEAN CORPUSCULAR VOLUME / MONOCYTE / NEUTROPHIL / NUCLEATED RED BLOOD CELLS / PLATELET COUNT: tissue Blood; for ALANINE AMINOTRANSFERASE / ALBUMIN / ALKALINE PHOSPHATASE / ASPARTATE AMINOTRANSFERASE / BLOOD UREA NITROGEN / CARBON DIOXIDE / CHLORIDE / CHOLESTEROL / CREATINE PHOSPHOKINASE / CREATININE / GLUCOSE / LACTATE DEHYDROGENASE / LIPASE / PHOSPHORUS / POTASSIUM / SODIUM / TOTAL BILIRUBIN / TOTAL PROTEIN / URIC ACID: tissue Plasma
[1] = 0 mg/kg, 72 h, dose level Control, time 3 day
[2] = 0 mg/kg, 120 h, dose level Control, time 5 day
[3] = […], 72 h, dose 0.025 mg/Kg, dose level Low, time 3 day
[4] = […], 72 h, dose 0.25 mg/Kg, dose level High, time 3 day

Compound: C[C@@H]1C[C@@H]([C@H](O)CC2CC(=O)NC(=O)C2)C(=O)[C@@H](C)C1 [CYCLOHEXIMIDE]
- ABSOLUTE BASOPHIL [1]: 0 CELLS/uL
- ABSOLUTE EOSINOPHIL [1]: 25 CELLS/uL
- ABSOLUTE LYMPHOCYTE [1]: 14357 CELLS/uL
- ABSOLUTE MONOCYTE [1]: 456.33 CELLS/uL
- ABSOLUTE SEGMENTED NEUTROPHIL [1]: 1461.67 CELLS/uL
- BASOPHIL [1]: 0%
- EOSINOPHIL [1]: 0.17%
- ERYTHROCYTE COUNT [1]: 5.85 x10E6/uL
- HEMATOCRIT [1]: 37.62%
- HEMOGLOBIN [1]: 13.87 G/DL
- LEUKOCYTE COUNT [1]: 16.3 x10E3/uL
- LYMPHOCYTE [1]: 88%
- MEAN CORPUSCULAR HEMOGLOBIN [1]: 23.68 pg
- MEAN CORPUSCULAR HEMOGLOBIN CONCENTRATION [1]: 36.88 G/DL
- MEAN CORPUSCULAR VOLUME [1]: 64.23 fL
- MONOCYTE [1]: 2.83%
- NEUTROPHIL [1]: 9%
- NUCLEATED RED BLOOD CELLS [1]: 0 /100WBC
- PLATELET COUNT [1]: 1125.33 x10E3/uL
- ALANINE AMINOTRANSFERASE [1]: 49.67 u/L
- ALBUMIN [1]: 4.23 G/DL
- ALKALINE PHOSPHATASE [1]: 400.83 u/L
- ASPARTATE AMINOTRANSFERASE [1]: 89.17 u/L
- BLOOD UREA NITROGEN [1]: 16 mg/dL
- CARBON DIOXIDE [1]: 31.83 mmol/L
- CHLORIDE [1]: 99 MEQ/L
- CHOLESTEROL [1]: 76 mg/dL
- CREATINE PHOSPHOKINASE [1]: 777.67 u/L
- CREATININE [1]: 0.22 mg/dL
- GLUCOSE [1]: 158.33 mg/dL
- LACTATE DEHYDROGENASE [1]: 186.17 u/L
- LIPASE [1]: 9.33 u/L
- PHOSPHORUS [1]: 12.95 mg/dL
- POTASSIUM [1]: 7.01 MEQ/L
- SODIUM [1]: 141.53 MEQ/L
- TOTAL BILIRUBIN [1]: 0.18 mg/dL
- TOTAL PROTEIN [1]: 6.08 G/DL
- URIC ACID [1]: 1.77 mg/dL
- ABSOLUTE BASOPHIL [2]: 0 CELLS/uL
- ABSOLUTE EOSINOPHIL [2]: 0 CELLS/uL
- ABSOLUTE LYMPHOCYTE [2]: 8994.5 CELLS/uL
- ABSOLUTE MONOCYTE [2]: 122.33 CELLS/uL
- ABSOLUTE SEGMENTED NEUTROPHIL [2]: 666.5 CELLS/uL
- BASOPHIL [2]: 0%
- EOSINOPHIL [2]: 0%
- ERYTHROCYTE COUNT [2]: 5.74 x10E6/uL
- HEMATOCRIT [2]: 35.17%
- HEMOGLOBIN [2]: 13.28 G/DL
- LEUKOCYTE COUNT [2]: 9.78 x10E3/uL
- LYMPHOCYTE [2]: 92.33%
- MEAN CORPUSCULAR HEMOGLOBIN [2]: 23.15 pg
- MEAN CORPUSCULAR HEMOGLOBIN CONCENTRATION [2]: 37.8 G/DL
- MEAN CORPUSCULAR VOLUME [2]: 61.27 fL
- MONOCYTE [2]: 1.33%
- NEUTROPHIL [2]: 6.33%
- NUCLEATED RED BLOOD CELLS [2]: 0 /100WBC
- PLATELET COUNT [2]: 1117 x10E3/uL
- ALANINE AMINOTRANSFERASE [2]: 47.83 u/L
- ALBUMIN [2]: 4.33 G/DL
- ALKALINE PHOSPHATASE [2]: 414.5 u/L
- ASPARTATE AMINOTRANSFERASE [2]: 77.5 u/L
- BLOOD UREA NITROGEN [2]: 17 mg/dL
- CARBON DIOXIDE [2]: 32.33 mmol/L
- CHLORIDE [2]: 99.33 MEQ/L
- CHOLESTEROL [2]: 76.33 mg/dL
- CREATINE PHOSPHOKINASE [2]: 363.67 u/L
- CREATININE [2]: 0.25 mg/dL
- GLUCOSE [2]: 173.5 mg/dL
- LACTATE DEHYDROGENASE [2]: 129.33 u/L
- LIPASE [2]: 9.17 u/L
- PHOSPHORUS [2]: 11.52 mg/dL
- POTASSIUM [2]: 5.73 MEQ/L
- SODIUM [2]: 143.85 MEQ/L
- TOTAL BILIRUBIN [2]: 0.2 mg/dL
- TOTAL PROTEIN [2]: 6.43 G/DL
- URIC ACID [2]: 0.97 mg/dL
- ABSOLUTE BASOPHIL [3]: 0 CELLS/uL
- ABSOLUTE EOSINOPHIL [3]: 0 CELLS/uL
- ABSOLUTE LYMPHOCYTE [3]: 12322.33 CELLS/uL
- ABSOLUTE MONOCYTE [3]: 322 CELLS/uL
- ABSOLUTE SEGMENTED NEUTROPHIL [3]: 1589 CELLS/uL
- BASOPHIL [3]: 0%
- EOSINOPHIL [3]: 0%
- ERYTHROCYTE COUNT [3]: 5.38 x10E6/uL
- HEMATOCRIT [3]: 34.5%
- HEMOGLOBIN [3]: 12.73 G/DL
- LEUKOCYTE COUNT [3]: 14.23 x10E3/uL
- LYMPHOCYTE [3]: 86.67%
- MEAN CORPUSCULAR HEMOGLOBIN [3]: 23.63 pg
- MEAN CORPUSCULAR HEMOGLOBIN CONCENTRATION [3]: 36.93 G/DL
- MEAN CORPUSCULAR VOLUME [3]: 64 fL
- MONOCYTE [3]: 2.33%
- NEUTROPHIL [3]: 11%
- NUCLEATED RED BLOOD CELLS [3]: 0 /100WBC
- PLATELET COUNT [3]: 1165.33 x10E3/uL
- ABSOLUTE BASOPHIL [4]: 0 CELLS/uL
- ABSOLUTE EOSINOPHIL [4]: 0 CELLS/uL
- ABSOLUTE LYMPHOCYTE [4]: 15128.33 CELLS/uL
- ABSOLUTE MONOCYTE [4]: 349 CELLS/uL
- ABSOLUTE SEGMENTED NEUTROPHIL [4]: 956 CELLS/uL
- BASOPHIL [4]: 0%
- EOSINOPHIL [4]: 0%
- ERYTHROCYTE COUNT [4]: 5.63 x10E6/uL
- HEMATOCRIT [4]: 36.7%
- HEMOGLOBIN [4]: 13.27 G/DL
- LEUKOCYTE COUNT [4]: 16.43 x10E3/uL
- LYMPHOCYTE [4]: 91.67%
- MEAN CORPUSCULAR HEMOGLOBIN [4]: 23.6 pg
- MEAN CORPUSCULAR HEMOGLOBIN CONCENTRATION [4]: 36.17 G/DL
- MEAN CORPUSCULAR VOLUME [4]: 65.3 fL
- MONOCYTE [4]: 2%
- NEUTROPHIL [4]: 6.33%
- NUCLEATED RED BLOOD CELLS [4]: 0 /100WBC
- PLATELET COUNT [4]: 1150.67 x10E3/uL
